Measured values from PubChem BioAssay AID1745844 (Carcinogenic Potency Database (CPDB), 2022).
Where “and” joins values, the source holds several entries; their conditions need not be identical. Equal values may be shown once. Calls of active or inactive are those of the source. No rule for the calls is given here.

Test system: rodent lifetime carcinogenesis bioassay, tumor incidence TD50
Assay: carcinogenic potency in animals, long-term in vivo studies, CPDB compilation (AID 1745844)
[1] = rat, strain Sprague-Dawley, females, in feed, site: mammary tissue, wider than the gland, lesion: malignant tumor, dosed 104 weeks, study length 104 weeks

C[C@]12CC[C@H]3C(=CCc4cc(OS(=O)(=O)O)ccc43)[C@@H]1CCC2=O
carcinogen call (rat, strain Charles River CD (Sprague-Dawley), females, in feed, site: liver, lesion: one or several types, types not named, dosed 104 weeks, study length 104 weeks): negative (inactive)
carcinogen call (rat, strain Charles River CD (Sprague-Dawley), males, in feed, site: liver, lesion: hepatoma, dosed 104 weeks, study length 104 weeks): negative (inactive)

CC(C)C(C(=O)OC(C#N)c1cccc(Oc2ccccc2)c1)c1ccc(Cl)cc1 (centres undefined)
TD50 (mouse, strain B6C3F1, females, in feed, site: any site (literature study), lesion: one or several types, types not named, dosed 104 weeks, study length 104 weeks): 173 mg/kg/day (inactive)
carcinogen call (mouse, strain B6C3F1, females, in feed, site: liver, lesion: hepatocellular adenoma, dosed 104 weeks, study length 104 weeks): negative (inactive)
carcinogen call (mouse, strain B6C3F1, females, in feed, site: liver, lesion: hepatocellular carcinoma, dosed 104 weeks, study length 104 weeks): negative (inactive)
carcinogen call (mouse, strain B6C3F1, females, in feed, site: lung, lesion: bronchiolar adenoma, dosed 104 weeks, study length 104 weeks): negative (inactive)
carcinogen call (mouse, strain B6C3F1, females, in feed, site: lung, lesion: bronchogenic carcinoma, dosed 104 weeks, study length 104 weeks): negative (inactive)
TD50 (mouse, strain B6C3F1, males, in feed, site: any site (literature study), lesion: one or several types, types not named, dosed 104 weeks, study length 104 weeks): 251 mg/kg/day (inactive)
carcinogen call (mouse, strain B6C3F1, males, in feed, site: liver, lesion: hepatocellular adenoma, dosed 104 weeks, study length 104 weeks): negative (inactive)
carcinogen call (mouse, strain B6C3F1, males, in feed, site: liver, lesion: hepatocellular carcinoma, dosed 104 weeks, study length 104 weeks): negative (inactive)
carcinogen call (mouse, strain B6C3F1, males, in feed, site: lung, lesion: bronchiolar adenoma, dosed 104 weeks, study length 104 weeks): negative (inactive)
carcinogen call (mouse, strain B6C3F1, males, in feed, site: lung, lesion: bronchogenic carcinoma, dosed 104 weeks, study length 104 weeks): negative (inactive)
carcinogen call (mouse, strain B6C3F1, males, in feed, site: skin, lesion: fibrosarcoma, dosed 104 weeks, study length 104 weeks): negative (inactive)
TD50 (mouse, strain C57BL/6, females, by gavage, site: all sites, lesion: lymphoma, dosed 104 weeks, study length 114 weeks): 384 mg/kg/day (inactive)
TD50 (mouse, strain C57BL/6, females, by gavage, site: any site (literature study), lesion: one or several types, types not named, dosed 104 weeks, study length 114 weeks): 435 mg/kg/day (inactive)
carcinogen call (mouse, strain C57BL/6, females, by gavage, site: liver, lesion: liver-cell tumor, dosed 104 weeks, study length 114 weeks): negative (inactive)
carcinogen call (mouse, strain C57BL/6, females, by gavage, site: lung, lesion: adenoma, dosed 104 weeks, study length 114 weeks): negative (inactive)
TD50 (mouse, strain C57BL/6, males, by gavage, site: all sites, lesion: lymphoma, dosed 104 weeks, study length 114 weeks): 659 mg/kg/day (inactive)
carcinogen call (mouse, strain C57BL/6, males, by gavage, site: any site (literature study), lesion: one or several types, types not named, dosed 104 weeks, study length 114 weeks): negative (inactive)
TD50 (mouse, strain C57BL/6, males, by gavage, site: liver, lesion: liver-cell tumor, dosed 104 weeks, study length 114 weeks): 328 mg/kg/day (inactive)
carcinogen call (mouse, strain C57BL/6, males, by gavage, site: lung, lesion: adenoma, dosed 104 weeks, study length 114 weeks): negative (inactive)
carcinogen call (rat, strain Sprague-Dawley, females, in feed, site: liver, lesion: round-cell sarcoma, dosed 104 weeks, study length 104 weeks): negative (inactive)
TD50 (rat, strain Sprague-Dawley, females, in feed, site: mammary gland, lesion: fibroadenoma, dosed 104 weeks, study length 104 weeks): 58 mg/kg/day (inactive)
TD50 (rat, strain Sprague-Dawley, females, in feed, site: mammary gland, lesion: fibroma, dosed 104 weeks, study length 104 weeks): 2.55 mg/kg/day (inactive)
TD50 (rat, strain Sprague-Dawley, females, in feed, site: mammary tissue, wider than the gland, lesion: benign tumor, dosed 104 weeks, study length 104 weeks): 43.7 mg/kg/day (inactive) and 247 mg/kg/day (inactive)
TD50 [1]: 150 mg/kg/day (inactive)
carcinogen call [1]: negative (inactive)
TD50 (rat, strain Sprague-Dawley, males, in feed, site: subcutaneous tissue, lesion: fibrosarcoma, dosed 104 weeks, study length 104 weeks): 5.04 mg/kg/day (inactive)
TD50 (rat, strain Sprague-Dawley, males, in feed, site: subcutaneous tissue, lesion: spindle-cell sarcoma, dosed 104 weeks, study length 104 weeks): 266 mg/kg/day (inactive)

O=C1C2(Cl)C3(Cl)C4(Cl)C(Cl)(Cl)C5(Cl)C3(Cl)C1(Cl)C5(Cl)C24Cl (centres undefined)
TD50 (mouse, strain B6C3F1, females, in feed, site: any site (literature study), lesion: several types, types named in the paper, dosed 80 weeks, study length 90 weeks): 1.57 mg/kg/day
TD50 (mouse, strain B6C3F1, females, in feed, site: liver, lesion: hepatocellular adenoma + hepatocellular carcinoma + neoplastic nodule, dosed 80 weeks, study length 90 weeks): 1.62 mg/kg/day
TD50 (mouse, strain B6C3F1, females, in feed, site: liver, lesion: hepatocellular carcinoma, dosed 80 weeks, study length 90 weeks): 1.62 mg/kg/day
TD50 (mouse, strain B6C3F1, males, in feed, site: any site (literature study), lesion: several types, types named in the paper, dosed 80 weeks, study length 89 weeks): 0.705 mg/kg/day
TD50 (mouse, strain B6C3F1, males, in feed, site: liver, lesion: hepatocellular adenoma + hepatocellular carcinoma + neoplastic nodule, dosed 80 weeks, study length 89 weeks): 0.705 mg/kg/day
TD50 (mouse, strain B6C3F1, males, in feed, site: liver, lesion: hepatocellular carcinoma, dosed 80 weeks, study length 89 weeks): 0.705 mg/kg/day
TD50 (mouse, strain B6C3F1, males, in feed, site: lung, lesion: alveolar/bronchiolar adenoma + alveolar/bronchiolar carcinoma, dosed 80 weeks, study length 89 weeks): 29.3 mg/kg/day
TD50 (rat, strain Osborne-Mendel, females, in feed, site: any site (literature study), lesion: several types, types named in the paper, dosed 80 weeks, study length 109 weeks): 1.83 mg/kg/day
TD50 (rat, strain Osborne-Mendel, females, in feed, site: liver, lesion: hepatocellular adenoma + hepatocellular carcinoma + neoplastic nodule, dosed 80 weeks, study length 109 weeks): 2.96 mg/kg/day
TD50 (rat, strain Osborne-Mendel, males, in feed, site: any site (literature study), lesion: several types, types named in the paper, dosed 80 weeks, study length 109 weeks): 1.42 mg/kg/day (inactive)
TD50 (rat, strain Osborne-Mendel, males, in feed, site: liver, lesion: hepatocellular adenoma + hepatocellular carcinoma + neoplastic nodule, dosed 80 weeks, study length 109 weeks): 2.49 mg/kg/day
TD50 (rat, strain Sprague-Dawley, males, in feed, site: liver, lesion: neoplastic nodule, dosed 91 weeks, study length 91 weeks): 0.199 mg/kg/day

CCC(C)[C@H]1O[C@]2(CC[C@@H]1C)CC1C[C@@H](C/C=C(\C)[C@@H](O[C@H]3C[C@H](OC)[C@@H](OC4C[C@H](OC)[C@@H](O)[C@H](C)O4)[C@H](C)O3)[C@@H](C)/C=C/C=C3\CO[C@@H]4[C@H](O)C(C)=C[C@@H](C(=O)O1)[C@]34O)O2 (some centres undefined) (tested in a mixture with another compound)
carcinogen call (rat, strain Wistar, males, in feed, site: forestomach, lesion: one or several types, types not named, dosed 52 weeks, study length 52 weeks): negative (inactive)

CC[C@H]1OC(=O)C[C@@H](O)[C@H](C)[C@@H](O[C@@H]2O[C@H](C)[C@@H](O[C@H]3C[C@@](C)(O)[C@@H](O)[C@H](C)O3)[C@H](N(C)C)[C@H]2O)[C@@H](CC=O)C[C@@H](C)C(=O)/C=C/C(C)=C/C1CO[C@@H]1O[C@H](C)[C@@H](O)[C@@H](OC)[C@H]1OC (some centres undefined)
carcinogen call (mouse, strain C57BL/6, females, in feed, site: liver, lesion: one or several types, types not named, dosed 52 weeks, study length 52 weeks): negative (inactive)
carcinogen call (mouse, strain C57BL/6, females, in feed, site: lung, lesion: one or several types, types not named, dosed 52 weeks, study length 52 weeks): negative (inactive)
carcinogen call (mouse, strain C57BL/6, males, in feed, site: liver, lesion: one or several types, types not named, dosed 52 weeks, study length 52 weeks): negative (inactive)
carcinogen call (mouse, strain C57BL/6, males, in feed, site: lung, lesion: one or several types, types not named, dosed 52 weeks, study length 52 weeks): negative (inactive)

O=c1cc[nH]c(=S)[nH]1
TD50 (mouse, strain C3H (MTV+), females, in feed, site: liver, lesion: hepatoma, dosed 73 weeks, study length 73 weeks): 63.3 mg/kg/day
TD50 (mouse, strain C3H (MTV+), males, in feed, site: liver, lesion: hepatoma, dosed 73 weeks, study length 73 weeks): 48.6 mg/kg/day
carcinogen call (mouse, strain TM, females, in feed, site: liver, lesion: hepatoma, dosed 73 weeks, study length 73 weeks): negative (inactive)
carcinogen call (mouse, strain TM, males, in feed, site: liver, lesion: hepatoma, dosed 73 weeks, study length 73 weeks): negative (inactive)
TD50 (rat, strain Fischer 344, females, in feed, site: thyroid gland, lesion: malignant tumor, dosed 103 weeks, study length 103 weeks): 22.9 mg/kg/day
TD50 (rat, strain Fischer 344, males, in feed, site: thyroid gland, lesion: malignant tumor, dosed 103 weeks, study length 103 weeks): 8.05 mg/kg/day

O=C(Nc1cccc2c(=O)cc(-c3nn[nH]n3)oc12)c1ccc(OCCCCc2ccccc2)cc1
carcinogen call (rat, strain Jcl:SD, females, by gavage, site: liver, lesion: one or several types, types not named, dosed 52 weeks, study length 52 weeks): negative (inactive)
carcinogen call (rat, strain Jcl:SD, females, by gavage, site: liver, lesion: one or several types, types not named, dosed 52 weeks, study length 56 weeks): negative (inactive)
carcinogen call (rat, strain Jcl:SD, males, by gavage, site: liver, lesion: neoplastic nodule, dosed 52 weeks, study length 56 weeks): negative (inactive)
carcinogen call (rat, strain Jcl:SD, males, by gavage, site: liver, lesion: one or several types, types not named, dosed 52 weeks, study length 52 weeks): negative (inactive)

Nc1ccc(N(CCO)CCO)cc1
TD50 (rat, strain F344/DuCrj, females, in feed, site: liver, lesion: hepatocellular adenoma, dosed 104 weeks, study length 104 weeks): 7310 mg/kg/day (inactive)
carcinogen call (rat, strain F344/DuCrj, males, in feed, site: liver, lesion: hepatocellular adenoma, dosed 104 weeks, study length 104 weeks): negative (inactive)
carcinogen call (rat, strain F344/DuCrj, males, in feed, site: liver, lesion: hepatocellular carcinoma, dosed 104 weeks, study length 104 weeks): negative (inactive)
